Values joined by “and” are separate entries in the source; they are usually repeats but may differ in a detail not shown here. Identical values can stand only once. Like-named read-outs stand apart in the source and are kept apart here.
Columns and labels:
[1] = tested on: NK2R-RF1 receptor; experiment: Fluorescence energy transfer between fluorescent ligand and NK2R-RF1 on HEK293 cells in suspension; type: binding, rat; conditions: for reversal of the energy transfer signal by excess non-labeled ligand, at equilibrium: 1–10 μM non-labeled ligand after 100 nM NKA BO I; for Kd: 0 to 256 nM ligand, read-out: affinity value KD from amplitude of the fluorescence signal; for Kd / inhibition of real-time energy transfer between 100 nM NKA BO I and NK2R-RF1: 10^6 cells/ml; for Kd / detection of receptor-fluorescent ligand interaction signal (energy transfer) / inhibition of real-time energy transfer between 100 nM NKA BO I and NK2R-RF1: emission 510 nm; for detection of receptor-fluorescent ligand interaction signal (energy transfer): 100 nM fluorescent ligand, real time; for inhibition of real-time energy transfer between 100 nM NKA BO I and NK2R-RF1: 20 μM non-fluorescent ligand
Description: The fluorescence experiments are carried out in a 1 ml tank fitted with a magnetic stirring system and placed in a Fluorolog spectrofluorimeter (SPEX) equipped with a 450 W xenon lamp (Osram) and Spex 1680 0.22 m (excitation) and Spex 1681 0.22 m (emission) monochromators. The cells or the membrane fragments are suspended in physiological buffer: 10 mM Hepes, 137.5 mM NaCl, 1.25 mM MgCl2, 1.25 mM CaCl2, 6 mM KCl, 5.6 mM glucose, 0.4 mM NaH2PO4, 0.1% (w/v) BSA, pH 7.4.
The HEK293 cells expressing the NK2R-RF1 are suspended at a concentration of 1,000,000 cells/ml in Hepes physiological buffer (10 mM Hepes, 137.5 mM NaCl, 1.25 mM MgCl2, 1.25 mM CaCl2, 6 mM KCl, 5.6 mM glucose, 0.4 mM NaH2PO4, 0.1% (w/v) BSA, pH 7,4). The cells are then placed in a fluorescence tank at a concentration which can range from 100,000 to 1,000,000 cells/ml. […] The emission spectrum of the solution is again recorded. […] The appearance of a peak at 550–560 nm during the addition of the fluorescent ligand and a reduction in its intensity during the addition of non-labeled ligand are also detected. […] The signal is reversible by means of addition of a pharmacological agent capable of inhibiting the interaction between the ligand and its receptor.
The same recordings can be made in real time. For this, the excitation wavelength is set at 460 nm and the emission wavelength is set at 510 nm. […] The final value of the fluorescence intensity can be higher than the initial value when the absorption of the fluorescent ligand contributes to the signal.

[2] = molecular target: T1, wild-type NK2R receptor (Rattus norvegicus, UniProt P16610); experiment: Release of intracellular calcium (FURA 2), cells expressing pCEP4-NK2R WT; type: cell-based; conditions: for inhibition of the NKA-elicited calcium response: antagonist (5 μM cyclopeptide) then 10 nM NKA
T1 construct: expressed in transfected cells; host or cells: HEK 293 cells, construct pCEP4-NK2R
T1 sequence (P16610 1-390): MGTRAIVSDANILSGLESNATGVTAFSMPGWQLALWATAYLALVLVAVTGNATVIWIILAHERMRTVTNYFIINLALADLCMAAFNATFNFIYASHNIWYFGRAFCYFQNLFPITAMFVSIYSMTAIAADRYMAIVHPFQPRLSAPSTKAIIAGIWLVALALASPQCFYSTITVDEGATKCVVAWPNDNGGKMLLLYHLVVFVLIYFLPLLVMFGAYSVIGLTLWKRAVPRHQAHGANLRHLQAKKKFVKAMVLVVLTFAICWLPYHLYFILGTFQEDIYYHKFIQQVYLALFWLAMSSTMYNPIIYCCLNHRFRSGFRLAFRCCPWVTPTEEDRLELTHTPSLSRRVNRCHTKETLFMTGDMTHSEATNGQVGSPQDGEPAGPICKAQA
Description: (§1) The fluorescent calcium-chelating agent, FURA 2 acetyl methyl ester (Molecular Probes), dissolved in DMSO is diluted to a concentration of 3 μM in 10 mM Hepes, 137.5 mM NaCl, 1.25 mM MgCl2, 1.25 mM CaCl2, 6 mM KCl, 5.6 mM glucose, 0.4 mM NaH2PO4, 0.1% (w/v) BSA, pH 7.4 buffer. The cell culture medium is aspirated and then replaced with 7 to 10 ml of FURA 2 AM solution. The cells are placed in the CO2 incubator for 45 min. The medium is then aspirated, replaced with FURA-free Hepes buffer and the cells are replaced in the CO2 incubator for a further 15 min. The buffer is aspirated and the cells are then collected after they have been detached from the dish with a 5 mM EDTA, PBS solution for 5 min. After centrifugation at 1000×g for 5 min., the cell pellet obtained is re-suspended at a rate of 1×10^6 cells/ml in Hepes buffer.
(§2) The calcium-release measurements are carried out at 37° C., in a spectrofluorimetiy tank containing a magnetic stirrer bar. The excitation wavelength is set at […] and the emission wavelength is set at 510 nm.

[3] = tested on: NK2R-RF1; experiment: Release of intracellular calcium (FURA 2), cells expressing pCEP4-NK2R-RF1; type: cell-based, rat; conditions: for inhibition of the NKA-elicited calcium response: antagonist (5 μM cyclopeptide) then 10 nM NKA
Description: as §1, §2

[4] = tested on: fluorescent receptor NK2R-RF1; experiment: Displacement of 3H SR 48968 binding (competition experiment), HEK 293 cells expressing NK2R-RF1; design: species or system rat; conditions: read-out: KI, displacement of 3H SR 48968, 1 nM 3H SR 48968, 25,000 cells, 4° C.
Description: Each 500 μl sample contains 25,000 cells, 1 nM 3HSR 48968 and a non-radioactive ligand at various concentrations (from 1 nM to 10 μM). The incubation is carried out for one hour at 4° C. Filtration is carried out at the end of incubation, as described in 3b).

[5] = molecular target: T1, wild-type NK2R receptor; experiment: Saturation binding of 3H SR 48968 to whole cells expressing wild-type NK2R; conditions: two experiments
Description: (§3) After incubation for 30 min. at room temperature, the samples are filtered through GF/C filters (Whatmann) pre-treated in 1% powdered milk in PBS (2.7 mM KCl, 1.47 mM KH2PO4, […], 8.06 mM Na2HPO4), rinsed twice with PBS (4 ml) and then counted in a scintillation cocktail.
(§4) Each 500 μl sample contains 25,000 cells, and the fraction of bound ligand is less than 10% of the amount added to each tube. Filtration is carried out at the end of incubation, as described above.

[6] = molecular target: T2, fluorescent receptor NK2R-RF1 (Rattus norvegicus, UniProt P16610); experiment: Saturation binding of 3H SR 48968 to whole cells expressing NK2R-RF1 (EGFP fused at N-terminal); conditions: two experiments
T2 construct: fused on or other part: EGFP (from pEGFP C3-1) fused at the receptor's N-terminus, preceded by the signal peptide of the hen alpha7 nicotinic receptor subunit; Both are tag or targeting parts and are not part of the key
Description: as §3, §4

[7] = tested on: non-transfected HEK 293 cells; experiment: Release of intracellular calcium (FURA 2), non-transfected cells; type: cell-based
Description: as §1, §2

[8] = saturation curve, 25,000 cells, 4° C., 1 h 30 min, read-out: affinity value (KD)

With `CC(=O)NC1(c2ccccc2)CCN(CC[C@H](CN(C)C(=O)c2ccccc2)c2ccc(Cl)c(Cl)c2)CC1` [SR 48968] the “reversal of the energy transfer signal by excess non-labeled ligand, at equilibrium” value [1] was “return to the initial fluorescence”, the “inhibition of the NKA-elicited calcium response” value [2] was “inhibited” and the “inhibition of the NKA-elicited calcium response” value [3] was “inhibited”.
With `CSCC[C@H](NC(=O)[C@H](CC(C)C)NC(=O)CNC(=O)[C@@H](NC(=O)[C@H](Cc1ccccc1)NC(=O)[C@H](CO)NC(=O)[C@H](CC(=O)O)NC(=O)[C@@H](NC(=O)[C@H](CCCCN)NC(=O)[C@H](Cc1c[nH]cn1)NCC(=O)NCCNC(=O)CCc1ccc2n1[B-](F)(F)[N+]1=C(c3ccccc3)C=C(c3ccccc3)C1=C2)[C@@H](C)O)C(C)C)C(N)=O` [NKA BO I] the Kd ([1]; listed as NKA-BO I) was 24 nM, the Kd [1] was 20 to 30 nM and the “change of EGFP fluorescence (510 nm) on addition of fluorescent ligand, at equilibrium” value ([1]; 100 nM ligand, excitation 460 nm) was “extinction of the fluorescence of EGFP”. The Ki [4] was 16 nM and the Ki ([4]; listed as NKA-BO I) was 16.1 nM.
With “NKA TR: neurokinin A labeled with sulforhodamine 101 acid chloride (Texas Red)” the “detection of receptor-fluorescent ligand interaction signal (energy transfer)” value [1] was “detection of an NK2R-RF1 receptor-fluorescent ligand interaction signal”.
In the case of `CC(=O)NC1(c2ccccc2)CCN(CC[C@H](CN(C)C(=O)c2ccccc2)c2ccc(Cl)c(Cl)c2)CC1` [^3H SR 48968], the Kd [5, 8] is reported as 1.05 nM and 0.78 nM, the “maximum binding value (B max)” value ([5]; saturation curve) is reported as 0.1 pMol/25,000 cells and the Kd [6, 8] is reported as 0.8 nM and 0.92 nM. The “maximum binding (B max) value” ([6]; saturation curve) was 0.075 pMol/25,000 cells and 0.088 pMol/25,000 cells.
neurokinin A [NKA] was tested, and the “inhibition of real-time energy transfer between 100 nM NKA BO I and NK2R-RF1” value [1] was “inhibition”, the “reversal of the energy transfer signal by excess non-labeled ligand, at equilibrium” value [1] was “return to the initial fluorescence” and the “effect of non-fluorescent ligand alone on the fluorescence emission spectrum” value ([1]; cells expressing NK2R-RF1, no fluorescent ligand) was “has no effect on the fluorescence emission spectrum”. For the same molecule, the Ki [4] was 2.1 nM, the “calcium release response elicited” value ([2]; 10 nM NKA, 37° C.) was “elicited” and the “calcium release response elicited” value ([3]; 10 nM NKA, 37° C.) was “elicited”. For the same molecule, the calcium release response [7] was “does not elicit any response”.
“cyclo(-Gln-Trp-Phe-Gly-Leu-Met) (QWFGLM; cyclic; printed: Gln-Trp-Phe-Gly-Leu-Met) [NK2R antagonist cyclopeptide (Bachem)]” was tested, and the “inhibition of real-time energy transfer between 100 nM NKA BO I and NK2R-RF1” value [1] was “inhibition”, the “reversal of the energy transfer signal by excess non-labeled ligand, at equilibrium” value [1] was “return to the initial fluorescence” and the “inhibition of the NKA-elicited calcium response” value [2] was “inhibited”. The “inhibition of the NKA-elicited calcium response” value [3] was “inhibited”.
In the case of “NKA Eos: eosin derivative of NKA (eosin-5-iodoacetamide)”, the “detection of receptor-fluorescent ligand interaction signal (energy transfer)” value [1] is reported as “detection of an NK2R-RF1 receptor-fluorescent ligand interaction signal”.

Reference: patent publication US7202046B2, “Use of a fluorescent protein for detecting interaction between a target protein and its ligand” (priority 1997, dated 2007)
